Our source for the IC50 values is patent US20240383875A1, “Benzimidazole Pyridine Derivatives” (Hoffmann-La Roche Inc., priority 2022, published 2024).

Common to all, as to assay type: biochemical
One assay addresses SIK1 (Homo sapiens, UniProt P57059). In words: Enzymatic activity assay SIK1, RapidFire mass spectrometry (phosphorylation of CHK-peptide). To be noted: RapidFire MS, inhibition of SIK1; read-out: SIK1 RF IC50. The method, boiled down: (§1)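 Human SIK1/2/3, 5/0.5/1.5 nM; 12.5 mM HEPES pH 7.0, 10 mM Mg acetate, 0.005% BSA. 30 min cpd pre-inc, + CHK-peptide (10 μM soln) + ATP (100 μM soln), 45 min RT. Formic acid stop; RF-MS phospho ratio; IC50.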

In another assay the target is SIK2 (Homo sapiens, UniProt Q9H0K1). In words: Enzymatic activity assay SIK2, RapidFire mass spectrometry (phosphorylation of CHK-peptide). The settings on record: RapidFire MS, inhibition of SIK2; read-out: SIK2 RF IC50. Summed up:
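Read-out is the summed phospho-species fraction of CHK-peptide by RapidFire mass spectrometry, normalized between DMSO and 1 μM YKL-05-099. The reaction used 0.5 nM SIK2, 100 μM ATP and 10 μM peptide solutions in HEPES pH 7.0/10 mM magnesium acetate for 45 min at ambient temperature.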

A further assay concerns the target SIK3 (Homo sapiens, UniProt Q9Y2K2). In words: Enzymatic activity assay SIK3, RapidFire mass spectrometry (phosphorylation of CHK-peptide). To be noted: RapidFire MS, inhibition of SIK3; read-out: SIK3 RF IC50. Summed up: as §1

Chain of SIK3 (Q9Y2K2 whole entry): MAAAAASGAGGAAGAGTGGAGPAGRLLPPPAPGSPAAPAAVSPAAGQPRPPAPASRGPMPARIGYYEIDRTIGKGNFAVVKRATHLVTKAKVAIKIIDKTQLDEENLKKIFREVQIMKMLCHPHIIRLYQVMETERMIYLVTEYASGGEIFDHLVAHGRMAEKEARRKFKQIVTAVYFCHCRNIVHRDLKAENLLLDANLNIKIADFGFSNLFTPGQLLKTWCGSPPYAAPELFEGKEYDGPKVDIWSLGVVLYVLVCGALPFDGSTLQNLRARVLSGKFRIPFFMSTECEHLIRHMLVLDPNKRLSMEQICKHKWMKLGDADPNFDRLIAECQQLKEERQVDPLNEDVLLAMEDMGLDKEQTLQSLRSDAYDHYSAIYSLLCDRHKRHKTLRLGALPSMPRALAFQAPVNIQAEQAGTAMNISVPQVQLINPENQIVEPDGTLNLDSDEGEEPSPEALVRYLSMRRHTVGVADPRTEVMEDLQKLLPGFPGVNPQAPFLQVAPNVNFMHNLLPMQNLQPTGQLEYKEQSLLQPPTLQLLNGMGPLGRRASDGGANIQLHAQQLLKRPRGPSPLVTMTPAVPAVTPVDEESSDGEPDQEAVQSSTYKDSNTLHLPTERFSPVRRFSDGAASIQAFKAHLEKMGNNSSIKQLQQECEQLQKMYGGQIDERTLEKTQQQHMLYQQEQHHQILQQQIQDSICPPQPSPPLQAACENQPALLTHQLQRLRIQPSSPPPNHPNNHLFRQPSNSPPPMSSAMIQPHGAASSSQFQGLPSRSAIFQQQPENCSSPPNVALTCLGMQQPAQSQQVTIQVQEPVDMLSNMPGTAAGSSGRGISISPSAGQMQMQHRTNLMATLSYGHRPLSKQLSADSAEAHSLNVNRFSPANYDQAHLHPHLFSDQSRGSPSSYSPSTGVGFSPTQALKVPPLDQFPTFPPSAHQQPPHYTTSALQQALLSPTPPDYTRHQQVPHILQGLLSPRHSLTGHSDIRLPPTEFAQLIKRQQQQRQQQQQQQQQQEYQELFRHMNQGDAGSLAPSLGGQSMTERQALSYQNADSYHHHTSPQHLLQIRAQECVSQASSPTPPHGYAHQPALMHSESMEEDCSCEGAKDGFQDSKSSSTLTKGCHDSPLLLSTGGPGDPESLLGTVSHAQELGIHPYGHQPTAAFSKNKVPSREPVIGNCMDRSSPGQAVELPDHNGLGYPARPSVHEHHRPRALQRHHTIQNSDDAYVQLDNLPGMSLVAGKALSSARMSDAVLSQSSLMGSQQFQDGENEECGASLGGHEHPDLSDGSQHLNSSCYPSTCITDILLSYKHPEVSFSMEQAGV
Chain of SIK1 (P57059 whole entry): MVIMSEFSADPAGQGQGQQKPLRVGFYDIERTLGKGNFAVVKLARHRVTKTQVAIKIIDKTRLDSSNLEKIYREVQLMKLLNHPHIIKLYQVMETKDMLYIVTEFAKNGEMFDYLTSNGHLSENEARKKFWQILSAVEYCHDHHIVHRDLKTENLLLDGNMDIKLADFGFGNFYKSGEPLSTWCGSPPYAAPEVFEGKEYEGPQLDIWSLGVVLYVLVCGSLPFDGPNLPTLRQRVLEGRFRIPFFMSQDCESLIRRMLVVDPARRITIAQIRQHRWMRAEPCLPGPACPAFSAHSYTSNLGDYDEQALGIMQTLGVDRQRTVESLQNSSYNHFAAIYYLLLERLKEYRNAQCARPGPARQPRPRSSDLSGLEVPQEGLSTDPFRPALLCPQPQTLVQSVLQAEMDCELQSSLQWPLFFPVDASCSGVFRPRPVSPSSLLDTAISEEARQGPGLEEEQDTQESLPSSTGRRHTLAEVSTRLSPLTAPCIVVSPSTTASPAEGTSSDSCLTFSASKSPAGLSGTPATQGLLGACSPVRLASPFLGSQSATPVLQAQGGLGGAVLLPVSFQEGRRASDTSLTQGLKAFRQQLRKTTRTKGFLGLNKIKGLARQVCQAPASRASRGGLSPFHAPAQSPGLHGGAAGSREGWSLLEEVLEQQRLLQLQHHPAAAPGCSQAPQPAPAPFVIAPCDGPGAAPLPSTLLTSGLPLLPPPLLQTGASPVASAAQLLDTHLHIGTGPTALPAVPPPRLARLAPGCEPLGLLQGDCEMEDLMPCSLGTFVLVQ
Chain of SIK2 (Q9H0K1 whole entry): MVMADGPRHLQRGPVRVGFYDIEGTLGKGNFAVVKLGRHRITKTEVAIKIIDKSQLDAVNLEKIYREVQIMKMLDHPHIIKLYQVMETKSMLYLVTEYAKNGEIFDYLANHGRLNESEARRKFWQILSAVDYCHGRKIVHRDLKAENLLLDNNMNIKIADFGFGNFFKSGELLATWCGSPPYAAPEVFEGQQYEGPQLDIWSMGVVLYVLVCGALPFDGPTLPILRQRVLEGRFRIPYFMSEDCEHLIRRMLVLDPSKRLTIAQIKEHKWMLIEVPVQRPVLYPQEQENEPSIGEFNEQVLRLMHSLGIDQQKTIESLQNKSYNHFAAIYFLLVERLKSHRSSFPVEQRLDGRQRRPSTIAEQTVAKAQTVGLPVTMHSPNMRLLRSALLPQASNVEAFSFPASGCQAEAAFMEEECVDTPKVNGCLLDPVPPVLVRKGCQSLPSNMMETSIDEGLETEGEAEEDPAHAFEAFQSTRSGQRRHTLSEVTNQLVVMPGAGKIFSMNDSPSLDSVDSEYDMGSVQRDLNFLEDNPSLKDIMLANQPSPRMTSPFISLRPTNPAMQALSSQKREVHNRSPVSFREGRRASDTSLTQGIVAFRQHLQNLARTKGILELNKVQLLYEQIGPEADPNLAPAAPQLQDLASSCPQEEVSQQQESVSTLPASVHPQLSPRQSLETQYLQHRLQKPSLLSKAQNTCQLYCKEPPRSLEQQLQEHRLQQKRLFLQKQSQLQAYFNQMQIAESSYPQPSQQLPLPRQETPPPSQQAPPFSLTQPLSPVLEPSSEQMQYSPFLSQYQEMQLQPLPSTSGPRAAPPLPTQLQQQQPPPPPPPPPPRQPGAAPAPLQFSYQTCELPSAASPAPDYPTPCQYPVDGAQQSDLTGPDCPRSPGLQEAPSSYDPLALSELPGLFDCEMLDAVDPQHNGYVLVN

The IC50 is the concentration that gives 50% inhibition. Regarding `Cc1ccc(Oc2ccc3c(c2)ncn3-c2ccc(C(C)O)c(-c3cn(CC(F)(F)F)nc3C)n2)nn1` (stereo not drawn) [Example 351, 1-[6-[5-(6-methylpyridazin-3-yl)oxybenzimidazol-1-yl]-2-[3-methyl-1-(2,2,2-trifluoroethyl)pyrazol-4-yl]-3-pyridyl]ethanol], the results for the IC50 on SIK1, on SIK2 and on SIK3 were 3390 nM, 35.4 nM and 9.3 nM, respectively.
In the same order, the values of `Cc1nn(CC(F)(F)F)cc1-c1nc(-n2cnc3cc(Oc4ccc(CN5CCN(C)CC5)nn4)ccc32)ccc1C(C)O` (stereo not drawn) [Example 352, 1-[6-[5-[6-[(4-methylpiperazin-1-yl)methyl]pyridazin-3-yl]oxybenzimidazol-1-yl]-2-[3-methyl-1-(2,2,2-trifluoroethyl)pyrazol-4-yl]-3-pyridyl]ethanol] are 2340 nM, 16.5 nM and 24.1 nM.
`Cc1ccc(Nc2cc3c(cc2OC2COC2)ncn3-c2ccc(C(C)O)c(-n3nc(OC(F)F)cc3C)n2)nn1` (stereo not drawn) [Example 353, 1-[2-[3-(difluoromethoxy)-5-methyl-pyrazol-1-yl]-6-[6-[(6-methylpyridazin-3-yl)amino]-5-(oxetan-3-yloxy)benzimidazol-1-yl]-3-pyridyl]ethanol]: the figures for the IC50 at SIK1, on SIK2 and at SIK3 were 230 nM, 60.6 nM and 218 nM, respectively.
In the same order, the values of `Cc1ccc(Nc2cc3c(cc2F)ncn3-c2ccc(C(C)O)c(-n3nc(Cl)cc3C)n2)nn1` (stereo not drawn) [Example 354, 1-[2-(3-chloro-5-methyl-pyrazol-1-yl)-6-[5-fluoro-6-[(6-methylpyridazin-3-yl)amino]benzimidazol-1-yl]-3-pyridyl]ethanol] are 225 nM, 78.6 nM and 75.9 nM.
Take `Cc1ccc(Nc2cc3ncn(-c4ccc(C(C)O)c(-n5nc(Cl)cc5C)n4)c3cc2F)nn1` (stereo not drawn) [Example 355, 1-[2-(3-chloro-5-methyl-pyrazol-1-yl)-6-[6-fluoro-5-[(6-methylpyridazin-3-yl)amino]benzimidazol-1-yl]-3-pyridyl]ethanol]: the IC50 at SIK1 came to 1050 nM; at SIK2, 5.3 nM; at SIK3 it was 3.6 nM.
`Cc1ccc(Nc2cc3ncn(-c4ccc(C(C)O)c(-c5cn(CC6CC6)nc5C)n4)c3cc2F)nn1` (stereo not drawn) [Example 356, 1-[2-[1-(cyclopropylmethyl)-3-methyl-pyrazol-4-yl]-6-[6-fluoro-5-[(6-methylpyridazin-3-yl)amino]benzimidazol-1-yl]-3-pyridyl]ethanol]: the concentration for half-maximal inhibition (IC50) was 245 nM at SIK1, 0.9 nM at SIK2 and 1.7 nM on SIK3.
In the same order, the values of `Cc1ccc(Nc2cc3ncn(-c4ccc(C(C)O)c(-n5nc(OC(F)F)cc5C)n4)c3cc2OC2COC2)nn1` (stereo not drawn) [Example 357, 1-[2-[3-(difluoromethoxy)-5-methyl-pyrazol-1-yl]-6-[5-[(6-methylpyridazin-3-yl)amino]-6-(oxetan-3-yloxy)benzimidazol-1-yl]-3-pyridyl]ethanol] are 19 nM, 1 nM and 1.7 nM.
In the same order, the values of `Cc1nn(CC(F)(F)F)cc1-c1nc(-n2cnc3cc(NC(=O)CN4CCCCC4)ccc32)ccc1C(C)O` (stereo not drawn) [Example 358, N-[1-[5-(1-hydroxyethyl)-6-[3-methyl-1-(2,2,2-trifluoroethyl)pyrazol-4-yl]-2-pyridyl]benzimidazol-5-yl]-2-(1-piperidyl)acetamide] are 51 nM, 2.5 nM and 8.4 nM.
In the same order, the values of `Cc1ccc(Nc2ccc3c(c2)ncn3-c2ccc(C(C)O)c(N3CC(C#N)C4(CCC4)C3)n2)nn1` (stereo not drawn) [Example 359, 6-[3-(1-hydroxyethyl)-6-[5-[(6-methylpyridazin-3-yl)amino]benzimidazol-1-yl]-2-pyridyl]-6-azaspiro[3.4]octane-8-carbonitrile] are 1170 nM, 25.3 nM and 4.6 nM.
Consider `Cc1ccc(Nc2ccc3c(c2)ncn3-c2ccc(C(C)O)c(N3CCOC(C#N)C3)n2)nn1` (stereo not drawn) [Example 360, 4-[3-(1-hydroxyethyl)-6-[5-[(6-methylpyridazin-3-yl)amino]benzimidazol-1-yl]-2-pyridyl]morpholine-2-carbonitrile], for which the IC50 at SIK1 turned out to be 2320 nM; on SIK2, 42.3 nM; at SIK3 it was 7.9 nM.
In the same order, the values of `Cc1ccc(Nc2cc3c(cc2F)ncn3-c2ccc(C(C)O)c(-n3nc(C(F)F)cc3C)n2)c(F)c1F` (stereo not drawn) [Example 362, 1-[6-[6-(2,3-difluoro-4-methyl-anilino)-5-fluoro-benzimidazol-1-yl]-2-[3-(difluoromethyl)-5-methyl-pyrazol-1-yl]-3-pyridyl]ethanol] are 12 nM, 8.7 nM and 26.7 nM.
With `Cc1ccc(Nc2ccc3c(c2)ncn3-c2ccc(C(C)O)c(-c3nn(C(F)F)cc3C)n2)nn1` (stereo not drawn) [Example 363, 1-[2-[1-(difluoromethyl)-4-methyl-pyrazol-3-yl]-6-[5-[(6-methylpyridazin-3-yl)amino]benzimidazol-1-yl]-3-pyridyl]ethanol], the IC50 came to 152 nM on SIK1, 1.2 nM at SIK2 and 1 nM at SIK3.
On to `Cc1cc(C(F)F)nn1-c1nc(-n2cnc3cc(F)c(Nc4ccc(F)c(F)c4F)cc32)ccc1C(C)O` (stereo not drawn) [Example 364, 1-[2-[3-(difluoromethyl)-5-methyl-pyrazol-1-yl]-6-[5-fluoro-6-(2,3,4-trifluoroanilino)benzimidazol-1-yl]-3-pyridyl]ethanol], for which the IC50 was found to be 8 nM on SIK1, 2.9 nM on SIK2 and 11.7 nM at SIK3.
In the same order, the values of `Cc1cc(C#N)nn1-c1nc(-n2cnc3ccc(-c4ccc5c(n4)C(=O)N(C)C5)cc32)ccc1C(C)O` (stereo not drawn) [Example 365, 1-[3-(1-hydroxyethyl)-6-[6-(6-methyl-7-oxo-5H-pyrrolo[3,4-b]pyridin-2-yl)benzimidazol-1-yl]-2-pyridyl]-5-methyl-pyrazole-3-carbonitrile] are 20 nM, 44.6 nM and 446 nM.
In the case of `Cc1cc(C#N)nn1-c1nc(-n2cnc3cc(-c4ccc5c(n4)C(=O)N(C)C5)ccc32)ccc1C(C)O` (stereo not drawn) [Example 366, 1-[3-(1-hydroxyethyl)-6-[5-(6-methyl-7-oxo-5H-pyrrolo[3,4-b]pyridin-2-yl)benzimidazol-1-yl]-2-pyridyl]-5-methyl-pyrazole-3-carbonitrile], the 50% inhibitory concentration (IC50) at SIK1 was 133 nM; on SIK2, 58.2 nM; on SIK3, 23.3 nM.
In the same order, the values of `Cc1cc(OC(F)F)nn1-c1nc(-n2cnc3cc(Nc4ccc(C(F)F)nn4)ccc32)ccc1C(C)O` (stereo not drawn) [Example 367, 1-[2-[3-(difluoromethoxy)-5-methylpyrazol-1-yl]-6-[5-[[6-(difluoromethyl)pyridazin-3-yl]amino]benzimidazol-1-yl]pyridin-3-yl]ethanol] are 88 nM, 1.5 nM and 0.8 nM.
In the same order, the values of `CCc1cc(C(F)F)nn1-c1nc(-n2cnc3ccc(Nc4ccc(C)nn4)cc32)ccc1C(C)O` (stereo not drawn) [Example 368, 1-[2-[3-(difluoromethyl)-5-ethyl-pyrazol-1-yl]-6-[6-[(6-methylpyridazin-3-yl)amino]benzimidazol-1-yl]-3-pyridyl]ethanol] are 106 nM, 77.1 nM and 1100 nM.
